From PMC10179080, “In Vivo and In Vitro Characterization of Close Analogs of Compound KA-11, a New Antiseizure Drug Candidate” (International Journal of Molecular Sciences, 2023)

Columns and labels:
[1] = tested on: tonic–clonic seizures in mice; conditions: i.p.; cited from earlier work
[2] = tested on: 6-Hz-induced psychomotor seizures in mice; conditions: i.p.; cited from earlier work
[3] = tested on: PTZ-induced clonic seizures in mice; conditions: i.p.; cited from earlier work
hepatoma HepG2 = test: Hepatotoxicity, HepG2 cell viability; format: cell-based, human; conditions: 100× lower concentration than 100 µM
Excerpt: The assays and protocols used for evaluating the KA-232 ADME-Tox parameters were similar to those described previously for compound KA-11 [6].
Figure 9 The effect of KA-232 and the reference drug ketoconazole (KE) on CYP3A4 activity (A). The effect of KA-232 and the reference drug quinidine (QD) on CYP2D6 activity (B). The effect of KA-232 and the reference cytostatic drug doxorubicin (DX) on the HepG2 cell line (C) and the SH-SY5Y cell line (D) viability. Statistical significance (* p < 0.05, **** p < 0.0001) was analyzed by Graph Pad Prism 8 software using one-way ANOVA and Bonferroni’s Multiple Comparison Post Test.

SMILES	ED50 MES ± SD [1] [mg/kg]	TI (TD50/ED50), MES [1]	ED50 6 Hz ± SD [2] [mg/kg]	TI (TD50/ED50), 6 Hz [2]	ED50 PTZ ± SD [3] [mg/kg]	TI (TD50/ED50), PTZ [3]	HepG2 cell viability (hepatoma HepG2)
CCCC(CCC)C(=O)O [VPA, valproic acid, reference compound]	355.2 ± 108.1	1.21	110.5 ± 42.8	3.90	176.2 ± 81.8	2.44	
COc1cccc2c1C(=O)c1c(O)c3c(c(O)c1C2=O)C[C@@](O)(C(=O)CO)C[C@@H]3O[C@H]1C[C@H](N)[C@H](O)[C@H](C)O1 [doxorubicin, reference compound]							21 % of control
